Results on 50 molecules are retold here after patent US10759816B2, “Heterocyclic compounds as RSV inhibitors” (Enanta Pharmaceuticals, Inc., priority 2016, dated 2020).

In general, EC50 refers to the concentration needed to bring the measured effect to its halfway point.

The test system of this assay is genotype A, "Long" strain RSV. The assay can be described thus: RSV-A in vitro cytoprotection assay in HEp-2 cells (ATPlite readout of cell viability). The format is cell-based, Human respiratory syncytial virus. As to conditions: human respiratory syncytial virus, HEp-2, HEp-2 cells, genotype A “Long” strain RSV, cytoprotection; read-out: Human RSV-A (“Long” strain) EC50. From the text:
RSV is a single stranded negative sense RNA virus that causes respiratory tract infections which can be dangerous to infants, the elderly, and immunosuppressed individuals. Currently there is no vaccine, and therapeutic options are both costly and of limited effectiveness. These approved treatments are Ribavirin, and Palivizumab/Synagis (a monoclonal antibody). RSV has two genotypes, A and B, which differ primarily in the structure of the virus' surface “G” attachment protein. Our current primary screen focuses on RSV-A and uses an in vitro cytoprotection assay where compounds are added in 2-fold dilutions to cells which are then subjected to fully replicative viral particles. Cell viability is measured several days later along with separate measurements of compound cytotoxicity. This report focuses on the results of our most recent screening of compounds.
HEp-2 cells, (originally derived from tumors grown in irradiated-cortisonised weanling rats that had been injected with epidermoid carcinoma tissue from a person's larynx, but later found to be indistinguishable from HeLa cells by PCR DNA analysis), were used for the culturing of genotype A, “Long” strain RSV. Flasks were inoculated with RSV and viral stocks were collected once cytopathic effect (CPE) was greater than 90%. Viral stocks in 25% sucrose media were snap frozen using liquid nitrogen to increase viral stability. Viral stock titers were quantified by tissue culture infectious dose 50% (TCID50) using 8,000 cells per well and 3-fold viral dilutions across a 96-well plate, cultured for 4 days.
Following extensive parameter testing, the final assay is run as follows: HEp-2 cells are seeded into the inner 60 wells of a 96-well plate at 8,000 cells per well in a volume of 50 μL using Growth Media (DMEM without phenol red, 1% L-Glut, 1% Penn/Strep, 1% nonessential amino acids, 10% FBS). 2-Fold serial dilutions of control and test compounds are added to the wells in duplicate in a total volume of 25 μL. Viral stock is then added to the wells in a volume of 25 μL, bringing the total volume of each well to 100 μL. Each 96-well plate has a control column of 6 wells with cells and virus but no compound (negative control, max CPE), a column with cells but no compound or virus (positive control, minimum CPE), and a column with no cells or virus or compound (background plate/reagent control). The control wells with cells but no virus are given an additional 25 uL of growth media containing an equal quantity of sucrose as those wells receiving the viral stock in order to keep consistent in media and volume conditions. The outer wells of the plate are filled with 125 μL of growth media to act as a thermal and evaporative moat around the test wells. Following a 4-day incubation period, the plates are read using ATPlite (50 uL added per well), which quantifies the amount of ATP (a measure of cell health) present in each well. Assay plates are read using the Envision luminometer. In parallel, cytotoxicity is examined on an additional 96-well plate treated in an identical manner, but substituting the 25 μL of viral stock for 25 μL of growth media. […] EC50 ranges are as follows: A <0.4 μM; B 0.4-0.8 μM; C >0.8 μM.
Background: ATP-based viability assays read luminescence as a measure of living cells.

SMILES strings stand for the structures.

For `COc1ccccc1CN(c1cccc(C(=O)N2CCc3cc(C(=O)Nc4c(C)cccc4F)sc3-c3ccccc32)n1)C1CC1` [Example 342], the EC50 is 400 to 800 nM.
In the case of `Cc1cccc(F)c1NC(=O)c1cc2c(s1)-c1ccccc1N(C(=O)c1cccc(-c3ccnn3C)n1)CC2` [Example 237] it was less than 400 nM.
In the case of `O=C(NC1CC1)c1cc2c(s1)-c1ccccc1N(C(=O)c1ccc(Cl)c(-c3ccnc(N4CCOCC4)c3)n1)CC2` [Example 93] it was greater than 800 nM.
In the case of `Cc1cnc(N2CC3(COC3)C2)c(NC(=O)c2ccc(C(=O)N3CCc4cc(C(=O)Nc5c(C)cccc5F)sc4-c4ccccc43)cc2)c1` [Example 141] it was greater than 800 nM; in that of `CN1CCCN(c2cccc(C(=O)N3CCc4cc(C(=O)NC5CC5)sc4-c4ccccc43)n2)CC1` [Example 36], 400 to 800 nM.
Turning to `COCC(C)(C)CNc1cccc(C(=O)N2CCc3cc(C(=O)NC4CC4)sc3-c3ccccc32)n1` [Example 321], the EC50 was greater than 800 nM.
In the case of `CNC(=O)c1cc2c(s1)-c1ccccc1N(C(=O)c1cccc(-c3ccc(OC)nc3)n1)CC2` [Example 94] it was greater than 800 nM; in that of `COc1cccc(CN(C)c2cccc(C(=O)N3CCc4cc(C(=O)NC5CC5)sc4-c4ccccc43)n2)c1` [Example 296], greater than 800 nM.
`COCCNC(=O)c1cc2c(s1)-c1ccccc1N(C(=O)c1cccc(N3CCCOCC3)n1)CC2` [Example 101]: the EC50 is less than 400 nM.
In the case of `Cc1cccc(F)c1NC(=O)c1cc2c(s1)-c1ccccc1N(C(=O)c1cccc(-c3ccc4[nH]c(=O)ccc4c3)n1)CC2` [Example 190] it was less than 400 nM.
In the case of `CC(=O)NCCN(C)c1cccc(C(=O)N2CCc3cc(C(=O)Nc4c(C)cccc4F)sc3-c3ccccc32)n1` [Example 372] it was 400 to 800 nM.
As to `Cc1cccc(F)c1NC(=O)c1cc2c(s1)-c1ccccc1N(C(=O)c1cccc(-c3c[nH]nc3C(F)(F)F)n1)CC2` [Example 210], the EC50 was less than 400 nM.
In the case of `Cc1cccc(F)c1NC(=O)c1cc2c(s1)-c1ccccc1N(C(=O)c1cccc(-c3cn(CCN(C)C)nc3C3CC3)n1)CC2` [Example 228] it was greater than 800 nM; in that of `O=C(NC1CC1)c1cc2c(s1)-c1ccccc1N(C(=O)c1cccc(-c3ccc(N4CCOCC4)nc3)n1)CC2` [Example 89], 400 to 800 nM.
For the molecule `Cc1cccc(F)c1NC(=O)c1cc2c(s1)-c1ccccc1N(C(=O)c1cccc(N3CC4(C3)CS(=O)(=O)C4)n1)CC2` [Example 428], the EC50 was greater than 800 nM.
In the case of `O=C(NC1CC1)c1cc2c(s1)-c1ccccc1N(C(=O)c1cccc(N3CC4CCC(C3)O4)n1)CC2` [Example 28] it was less than 400 nM; in that of `COCCN(C)c1cccc(C(=O)N2CCc3cc(C(=O)NC4CC4)sc3-c3ccccc32)n1` [Example 34], 400 to 800 nM.
In the case of `Cc1cccc(F)c1NC(=O)c1cc2c(s1)-c1ccccc1N(C(=O)c1cccc(N3CCC[C@@H]3C(C)C)n1)CC2` [Example 482] it was greater than 800 nM; in that of `O=C(NC1CC1)c1cc2c(s1)-c1ccccc1N(C(=O)c1ccc(F)c(-c3ccnc(N4CCOCC4)c3)n1)CC2` [Example 71], 400 to 800 nM.
In the case of `Cc1cccc(F)c1NC(=O)c1cc2c(s1)-c1ccccc1N(C(=O)c1cccc(-c3c[nH]nc3C3CC3)n1)CC2` [Example 196] it was less than 400 nM; in that of `O=C(NC1CC1)c1cc2c(s1)-c1ccccc1N(C(=O)c1ccc3ncn(C4CCOCC4)c3c1)CC2` [Example 13], greater than 800 nM; in that of `O=C(NC1CC1)c1cc2c(s1)-c1ccccc1N(C(=O)c1cccc(-c3cccnc3N3CCOCC3)n1)CC2` [Example 87], 400 to 800 nM.
Consider `O=C(NC1CC1)c1cc2c(s1)-c1ccccc1N(C(=O)c1cccc(-c3cccnc3)n1)CC2` [Example 154], for which the EC50 was greater than 800 nM.
In the case of `Cc1cccc(F)c1NC(=O)c1cc2c(s1)-c1ccccc1N(C(=O)c1cccc(-c3cn(C(=O)OC(C)(C)C)c4ccc(Cl)cc34)n1)CC2` [Example 248] it was greater than 800 nM; in that of `COc1ccc(-c2nc(C(=O)N3CCc4cc(C(=O)NC5CC5)sc4-c4ccccc43)ccc2C#N)cn1` [Example 70], greater than 800 nM; in that of `Cc1cccc(F)c1NC(=O)c1cc2c(s1)-c1ccccc1N(C(=O)c1cccc(N3C[C@H]4C[C@@H]3CO4)n1)CC2` [Example 429], less than 400 nM.
In the case of `O=C(NC1CC1)c1cc2c(s1)-c1ccccc1N(C(=O)c1cccc(-c3ccc(N4CCCOCC4)nc3)n1)CC2` [Example 90] it was 400 to 800 nM; in that of `COc1cccc(Oc2cccc(C(=O)N3CCc4cc(C(=O)NC5CC5)sc4-c4ccccc43)n2)c1` [Example 393], greater than 800 nM; in that of `CN(C)c1ccc(-c2cccc(C(=O)N3CCc4cc(C(=O)NC5CC5)sc4-c4ccccc43)n2)cn1` [Example 82], greater than 800 nM.
As for `O=C(NC1CC1)c1cc2c(s1)-c1ccccc1N(C(=O)c1ccnc(N3CCOCC3)n1)CC2` [Example 51], the EC50 lay within 400 to 800 nM.
Turning to `Cc1cccc(F)c1NC(=O)c1cc2c(s1)-c1ccccc1N(C(=O)c1cccc(N(C)Cc3cccc(-c4cccnc4)c3)n1)CC2` [Example 351], the EC50 is greater than 800 nM.
In the case of `O=C(NC1CC1)c1cc2c(s1)-c1ccccc1N(C(=O)c1cccc(-c3ccnc(N4CCCOCC4)c3)n1)CC2` [Example 86] it was less than 400 nM.
In the case of `COc1ccc(-c2cccc(C(=O)N3CCc4cc(C(=O)N(C)C)sc4-c4ccccc43)n2)cn1` [Example 95] it was 400 to 800 nM; in that of `O=C(NC1CC1)c1cc2c(s1)-c1ccccc1N(C(=O)c1cccc(-c3ccc(C(F)(F)F)nc3)n1)CC2` [Example 73], 400 to 800 nM; in that of `Cc1cccc(F)c1NC(=O)c1cc2c(s1)-c1cc(F)ccc1N(C(=O)c1cccc(N3CCOc4ccccc4C3)n1)CC2` [Example 395], less than 400 nM.
In the case of `CS(=O)(=O)N1CC(NC(=O)c2cc3c(s2)-c2ccccc2N(C(=O)c2cccc(-c4c[nH]nc4C4CC4)n2)CC3)C1` [Example 184] it was greater than 800 nM; in that of `O=C(NC1CC1)c1cc2c(s1)-c1ccccc1N(C(=O)c1ccc(N3CCOCC3)cc1)CC2` [Example 3], greater than 800 nM; in that of `Cc1cccc(F)c1NC(=O)c1cc2c(s1)-c1ccccc1N(C(=O)c1cccc(-c3cn(CS(C)(=O)=O)nc3C3CC3)n1)CC2` [Example 231], greater than 800 nM.
Regarding `CN1CC(NC(=O)c2cc3c(s2)-c2ccccc2N(C(=O)c2cccc(-c4c[nH]nc4C4CC4)n2)CC3)C1` [Example 183], the EC50 was greater than 800 nM.
In the case of `Cc1cccc(F)c1NC(=O)c1cc2c(s1)-c1ccccc1N(C(=O)c1cccc(N3CCOc4ccc(Cl)cc4C3)n1)CC2` [Example 417] it was less than 400 nM; in that of `O=C(NC1CC1)c1cc2c(s1)-c1ccccc1N(C(=O)c1cccc(C3=CCOCC3)n1)CC2` [Example 59], 400 to 800 nM; in that of `Cc1cccc(F)c1NC(=O)c1cc2c(o1)-c1ccccc1N(C(=O)c1ccc(NC(=O)c3cccnc3N3CC4(CCOCC4)C3)cc1)CC2` [Example 135], less than 400 nM.
In the case of `COc1ncc(-c2cccc(C(=O)N3CCc4cc(C(=O)NC5CC5)sc4-c4ccccc43)n2)cc1C` [Example 163] it was less than 400 nM; in that of `O=C(NC1CC1)c1cc2c(s1)-c1ccccc1N(C(=O)c1cc(N3CCCOCC3)ncn1)CC2` [Example 50], greater than 800 nM; in that of `Cc1cccc(F)c1NC(=O)c1cc2c(s1)-c1ccccc1N(C(=O)c1cccc(-c3coc4ccncc34)n1)CC2` [Example 258], greater than 800 nM.
In the case of `O=C(NC1CC1)c1cc2c(s1)-c1ccccc1N(C(=O)c1cccc(N3CCC4(CCOCC4)CC3)n1)CC2` [Example 26] it was 400 to 800 nM; in that of `O=C(NC1CC1)c1cc2c(s1)-c1ccccc1N(C(=O)c1cccc(-n3cnc4ncccc43)n1)CC2` [Example 121], greater than 800 nM; in that of `Cc1cccc(F)c1NC(=O)c1cc2c(s1)-c1ccccc1N(C(=O)c1cccc(N(C)Cc3cccc(-c4ccncc4)c3)n1)CC2` [Example 346], 400 to 800 nM.
In the case of `O=C(NC1CC1)c1cc2c(s1)-c1ccccc1N(C(=O)c1cccc(-c3ccc(C(=O)N4CCOCC4)cc3)n1)CC2` [Example 68], the EC50 is 400 to 800 nM.
In the case of `Cc1cccc(F)c1NC(=O)c1cc2c(s1)-c1ccccc1N(C(=O)c1cccc(N3CCCC(C)(C)CC3)n1)CC2` [Example 375] it was 400 to 800 nM.
